From patent US8980844B2, “Peptide having antibacterial or anti-inflammatory activity and pharmaceutical composition containing the same as an active ingredient” (Nano Intelligent Biomedical Engineering Corporation Co. Ltd., priority 2010, dated 2015)
Counter-ions that a name gives are not always drawn. No end group written: not given here.

Tests used:
Assay type in all cases: cell-based
[1] = test system: iNOS expression in RAW 264.7 cells; assay: Western blot analysis of iNOS; settings: 1 hour pretreatment, LPS 10 ng/ml, 8 hours, FIG. 4
Description: (§1) RAW 264.7 cells obtained from ATCC (American Type Culture Collection) were incubated in a CO2 incubator (supplied with 5% CO2 and 95% air) with DMEM (Dulbecco's modified Eagle medium) medium containing 10% FBS and 100 units/ml of antibiotics (penicillin and streptomycin) at 37° C.
(§2) The incubated RAW 264.7 cells were treated with each of the peptides having the amino acid sequences of SEQ ID NOS: 1 to 4 for 1 hour, and then treated with LPS (10 ng/ml). After 8 hours, a protein of each of the cytosol and the nucleus was collected and compared with the changes in expressions of iNOS and COX-2 caused by hBD3, rhPDGF-BB and rhHB-EGF. The collected protein was identified by SDS-PAGE and transferred to a nitrocellulose membrane using a blotting kit. The membrane was blotted with each of the primary antibodies iNOS and COX-2 and exposed to HRP (horseradish peroxidase)-conjugated secondary antibody. Then, the membrane was allowed to react with an ECL western blot detection reagent and exposed to an X-ray film to detect signals, thereby measuring the expressions of the inflammation-associated enzymes iNOS and COX-2.

[2] = test system: COX-2 expression in RAW 264.7 cells; assay: Western blot analysis of COX-2; settings: 1 hour pretreatment, LPS 10 ng/ml, 8 hours, FIG. 4
Description: as §1, §2

[3] = test system: NF-κB expression in RAW 264.7 cells; assay: Western blot analysis of NF-κB; settings: 1 hour pretreatment, LPS 10 ng/ml, 8 hours, FIG. 3
Description: In order to examine association with signals, the expression of the allergic inflammation-associated enzyme NF-κB associated with the NF-κB signal was measured.
as §1
The incubated RAW 264.7 cells were treated with each of the peptides having the amino acid sequences of SEQ ID NOS: 1 to 4 for 1 hour, and then treated with LPS (10 ng/ml). After 8 hours, a protein of each of the cytosol and the nucleus was collected and compared with the changes in expression of NF-κB caused by hBD3, rhPDGF-BB and rhHB-EGF. The collected protein was identified by SDS-PAGE and transferred to a nitrocellulose membrane using a blotting kit. The membrane was blotted with the primary antibody NF-κB and exposed to HRP (horseradish peroxidase)-conjugated secondary antibody. Then, the membrane was allowed to react with an ECL western blot detection reagent and exposed to an X-ray film to detect a signal, thereby measuring the expression of the inflammation-associated enzyme NF-κB.

[4] = test system: Basophilic leukemia RBL-2H3 cells; assay: Change in release of β-hexosaminidase (degranulation, anti-allergic effect); settings: RBL-2H3 cells sensitised with anti-DNP IgE, challenged with DNP-HAS; concentration of 100 μM; FIG. 2
Description: In order to examine the anti-allergic effects of the peptides having the amino acid sequences of SEQ ID NOS: 1 to 4, the changes in release of β-hexosaminidase by the peptides were measured.
Basophilic leukemia RBL-2H3 cells obtained from ATCC (American Type Culture Collection) were cultured in a CO2 incubator (supplied with 5% CO2 and 95% air) with DMEM (Dulbecco's modified Eagle medium) medium containing 10% FBS (heat inactivated fetal bovine serum) and 100 units/ml of antibiotics (penicillin and streptomycin) at 37° C. for 24 hours. Specifically, the cells were cultured in a 96-well plate at a density of 5×10^4 cells/well, and then the supernatant was removed. […] Then, the absorbance at 405 nm was measured and the change in release of β-hexosaminidase was determined. The method of measuring the amount of β-hexosaminidase is known to be sensitive and accurate compared to a method of quantifying histamine, and thus has recently been frequently used in studies on degranulation. For comparison, In addition, the changes in release of β-hexosaminidase by KF and growth factors (hBD3, rhPDGF-BB and rhHB-EGF), which are used as agents for treating allergic diseases, were measured in the same manner as described above and compared with the changes caused by the peptides.

[5] = test system: Prevotella intermedia, Actinomyces israelii, Fusobacterium nucleatum, Staphylococcus aureus subsp aureus, Streptococcus pyogenes, Staphylococcus epidermidis; assay: Antibacterial activity by liquid dilution method (colony count); settings: liquid dilution method, 1, 10 and 100 μg/ml, 37° C. for 1 hour, number of colonies counted; FIG. 1
Description: In order to evaluate the antibacterial effects of the peptides having the amino acid sequences of SEQ ID NOS: 1 to 4, measurement of the antibacterial activities of the peptides was carried out using a liquid dilution method. Periodontal pathogens, including Prevotella intermedia, Actinomyces israelii, and Fusobacterium nucleatum, were cultured in tryptic soy broth. Staphylococcus aureus subsp aureus and Streptococcus pyogenes were curtured in trypticase soy broth, and Staphylococcus epidermidis was curtured in nutrient liquid medium. After the above bacterial strains had been cultured until the absorbance at 620 nm reached 1, the cells were collected and used in the test. […]
In order to measure the antibacterial activities of the peptides using the liquid dilution method, 1 ml of distilled water was placed in a fine tube, after which 10 μl of the diluted bacterial cell solution was placed in the tube, and then 50 μl of the solution was plated on plate medium and used as a control. Meanwhile, plate medium was treated with each of the antibacterial peptides at concentrations of 1 μg/ml, 10 μg/ml and 100 μg/ml at 37° C. for 1 hours, after which 50 μl of the bacterial cell solution was plated on the plate medium, and the number of colonies produced was counted. […]

## CN1CCC(=C2c3ccccc3CC(=O)c3sccc32)CC1 [KF, ketotifen fumarate, reference compound]
[1]
  LPS-induced expression of iNOS: smaller than the inhibitory effects of the peptides
[2]
  LPS-induced expression of COX-2: smaller than the inhibitory effects of the peptides
[3]
  LPS-induced expression of NF-κB: smaller than the inhibitory effects of the peptides

## hBD3: human beta-defensin-3, comparator (GIINTLQKYYCRVRGGRCAVLSCLPKEEQIGKCSTRGRKCCRRKK; ends and bridges not checked; cysteine pairing not given here; UniProt P81534 23-67, looked up)
[1]
  LPS-induced expression of iNOS: no inhibitory effect
[2]
  LPS-induced expression of COX-2: no inhibitory effect
[3]
  LPS-induced expression of NF-κB: not greater than those of the peptides
[4]
  release of β-hexosaminidase: did not influence the reduction in the release of β-hexosaminidase
[5]
  antibacterial activity: lower than those of the peptides

B1: rhHB-EGF: recombinant human HB-EGF, comparator growth factor (protein, UniProt Q99075 63-148, looked up)
Heparin-binding EGF-like …: DLQEADLDLLRVTLSSKPQALATPNKEEHGKRKKKGKGLGKKRDPCLRKYKDFCIHGECKYVKELRAPSCICHPGYHGERCHGLSL
[1]
  LPS-induced expression of iNOS: no inhibitory effect
[2]
  LPS-induced expression of COX-2: no inhibitory effect
[3]
  LPS-induced expression of NF-κB: not greater than those of the peptides
[4]
  release of β-hexosaminidase: did not influence the reduction in the release of β-hexosaminidase
[5]
  antibacterial activity: lower than those of the peptides
